PubChem BioAssay AID1259408 (Genetic Toxicology Data Bank (GENE-TOX), 2018)
The source made the active and inactive calls. The rule behind the calls is not given here.

System: GENE-TOX genotoxicity assays, various organisms and cells
Assay: GENE-TOX mutagenicity studies
Conditions: for call: Assay Type: In vivo carcinogenicity studies
[1] = Species/Cell Type: Salmonella typhimurium (one or more of the five standard strains: TA98, TA100, TA1535, TA1537, and TA1538), Assay Type: Histidine reverse gene mutation, Ames assay, Assay Code: SAL+*, Activation: With metabolic activation, Evaluation Type: Evaluation A (Pre-1980)
[2] = Species/Cell Type: Drosophila melanogaster, Assay Type: Sex-linked recessive lethal gene mutation, Assay Code: SRL+, Evaluation Type: Evaluation A (Pre-1980)
[3] = Species/Cell Type: Nonhuman, Assay Type: Sister-chromatid exchange (SCE) in vitro, Assay Code: SC2+D, Dose Response: With dose response, Evaluation Type: Evaluation B (Post-1980)
[4] = Species/Cell Type: Saccharomyces cerevisiae, Assay Type: Mitotic recombination or gene conversion, Assay Code: YEC+, Evaluation Type: Evaluation A (Pre-1980)
[5] = Species/Cell Type: Nonhuman, Assay Code: CCG+, Evaluation Type: Evaluation A (Pre-1980)
[6] = Species/Cell Type: Salmonella typhimurium (one or more of the five standard strains: TA98, TA100, TA1535, TA1537, and TA1538), Assay Type: Histidine reverse gene mutation, Ames assay, Assay Code: SAL+, Evaluation Type: Evaluation A (Pre-1980)
[7] = Species/Cell Type: Salmonella typhimurium (one or more of the five standard strains: TA98, TA100, TA1535, TA1537, and TA1538), Assay Type: Histidine reverse gene mutation, Ames assay, Assay Code: SALT, Evaluation Type: Evaluation A (Pre-1980)
[8] = Species/Cell Type: Drosophila melanogaster, Assay Type: Sex-linked recessive lethal gene mutation, Assay Code: SRLT, Evaluation Type: Evaluation A (Pre-1980)
[9] = Species/Cell Type: Human lymphocytes, Assay Type: Sister-chromatid exchange (SCE) in vitro, Assay Code: SCLT, Evaluation Type: Evaluation B (Post-1980)
[10] = Species/Cell Type: Human, Assay Type: Sister-chromatid exchange (SCE) in vitro, Assay Code: SC1T, Evaluation Type: Evaluation B (Post-1980)
[11] = Species/Cell Type: Syrian hamster embryo (SA7/SHE) cells, Assay Type: Cell transformation, viral enhanced, Assay Code: CT7+, Evaluation Type: Evaluation A (Pre-1980)
[12] = Species/Cell Type: Salmonella typhimurium (one or more of the five standard strains: TA98, TA100, TA1535, TA1537, and TA1538), Assay Type: Histidine reverse gene mutation, Ames assay, Assay Code: SAL-, Evaluation Type: Evaluation A (Pre-1980)
[13] = Species/Cell Type: Schizosaccharomyces pombe, Assay Type: Reverse gene mutation, Assay Code: YEZ+, Evaluation Type: Evaluation A (Pre-1980)

SMILES: CN1C[C@H](C(=O)N[C@]2(C)O[C@@]3(O)[C@@H]4CCCN4C(=O)[C@H](Cc4ccccc4)N3C2=O)C=C2c3cccc4[nH]cc(c34)C[C@H]21
- mutagenic call (Species/Cell Type: Rodents, Sex: Male, Assay Type: Dominant lethal test, Assay Code: DLT+, Evaluation Type: Evaluation A (Pre-1980)): active; positive

SMILES: Oc1cc2ccc3cc4ccccc4c4ccc(c1)c2c34
- mutagenic call (Species/Cell Type: Chinese hamster lung (V79) cells, Assay Type: Forward gene mutation at the HPRT or ouabain locus, Assay Code: V79-, Evaluation Type: Evaluation A (Pre-1980)): inactive; negative
- call (Species/Cell Type: Nonhuman, Assay Code: CCG+L, Evaluation Type: Evaluation A (Pre-1980)): active; positive
- mutagenic call [1]: active; positive

SMILES: CCCCN(CCC)N=O
- mutagenic call [1]: active; positive

SMILES: CSc1ccc2c(c1)N(CCC1CCCCN1C)c1ccccc1S2 (stereo not given)
- mutagenic call [2]: active; positive
- mutagenic call (Species/Cell Type: Drosophila melanogaster, Sex: Male, Assay Type: Heritable translocation test, chromosome aberrations, Assay Code: DHT+, Evaluation Type: Evaluation A (Pre-1980)): active; positive
- mutagenic call (Species/Cell Type: Mammalian polychromatic erythrocytes, Assay Type: Micronucleus test, chromosome aberrations, Assay Code: MNTT, Evaluation Type: Evaluation B (Post-1980)): no conclusion

SMILES: CN[C@H]1C[C@H](O[C@H]2C[C@](O)(C(C)=O)Cc3c(O)c4c(c(O)c32)C(=O)c2c(OC)cccc2C4=O)O[C@@H](C)[C@H]1O
- mutagenic call [1]: active; positive

SMILES: Cc1cc2cc3c(C)cc(=O)oc3c(C)c2o1
- mutagenic call (Species/Cell Type: Human lymphocytes, Assay Type: Sister-chromatid exchange (SCE) in vitro, Assay Code: SCLT, Evaluation Type: Evaluation A (Pre-1980)): no conclusion
- mutagenic call (Species/Cell Type: Human, Assay Type: Sister-chromatid exchange (SCE) in vitro, Assay Code: SC1T, Evaluation Type: Evaluation A (Pre-1980)): no conclusion

SMILES: CNC(=O)Oc1cccc2c1OC(C)(C)O2
- mutagenic call (Species/Cell Type: Aspergillus nidulans, Assay Type: Aneuploidy, chromosome aberrations, Assay Code: ASN-, Evaluation Type: Evaluation A (Pre-1980)): inactive; negative

SMILES: CN(N=O)C(=O)Nc1ccc(Br)cc1
- mutagenic call [3]: active; positive

SMILES: COP(=O)(OC)O/C(C)=C/C(=O)N(C)C
- mutagenic call [3]: active; positive
- mutagenic call [4]: active; positive

SMILES: Nc1ncnc2c1ccn2[C@@H]1O[C@H](CO)[C@@H](O)[C@H]1O
- mutagenic call (Species/Cell Type: Fischer rat embryo (RLV/1706) cells, Assay Type: Cell transformation, viral enhanced, Assay Code: CTR-, Evaluation Type: Evaluation A (Pre-1980)): inactive; negative

SMILES: CCOC(=O)c1ccc(N=NN(C)C)cc1
- mutagenic call [2]: active; positive
- mutagenic call [4]: active; positive

SMILES: Cc1ccc2nc3sc(=O)sc3nc2c1
- mutagenic call (Species/Cell Type: Saccharomyces cerevisiae, Assay Type: Mitotic recombination or gene conversion, Assay Code: YEC-, Evaluation Type: Evaluation A (Pre-1980)): inactive; negative

SMILES: CCCCN(CCCCO)N=O
- mutagenic call (Species/Cell Type: Escherichia coli polA (W3119 vs P3478), Assay Type: Rec-assay, DNA effects (bacterial DNA repair), Assay Code: RE1T, Evaluation Type: Evaluation A (Pre-1980)): no conclusion
- mutagenic call (Species/Cell Type: Nonhuman, Assay Type: Chromosome aberrations in vitro, Assay Code: CY&-, Evaluation Type: Evaluation A (Pre-1980)): inactive; negative
- call [5]: active; positive
- mutagenic call [3]: active; positive
- mutagenic call (Species/Cell Type: Nonhuman, Assay Type: Sister-chromatid exchange (SCE) in vitro, Assay Code: SC2T, Evaluation Type: Evaluation A (Pre-1980)): no conclusion
- mutagenic call [6]: active; positive

SMILES: CC(=O)OCN(Cc1ccccc1)N=O
- mutagenic call [7]: no conclusion

SMILES: CN(N=O)C(=O)NC1O[C@H](CO)[C@@H](O)[C@H](O)[C@H]1O (stereo not given in full)
- mutagenic call (Species/Cell Type: Chinese hamster lung (V79) cells, Assay Type: Forward gene mutation at the HPRT or ouabain locus, Assay Code: V79+, Evaluation Type: Evaluation A (Pre-1980)): active; positive

SMILES: NC(=O)N/N=C(/CCN1CCCCC1)c1ccc([N+](=O)[O-])o1
- mutagenic call (Species/Cell Type: Escherichia coli WP2, Assay Type: Tryptophan reverse gene mutation, Assay Code: WP2+, Evaluation Type: Evaluation A (Pre-1980)): active; positive
- mutagenic call (Species/Cell Type: Escherichia coli WP2 UVRA, Assay Type: Tryptophan reverse gene mutation, Assay Code: WPU+, Evaluation Type: Evaluation A (Pre-1980)): active; positive

SMILES: O=c1[nH]c(=O)c2[nH]cnc2[nH]1
- mutagenic call [8]: no conclusion

SMILES: Nc1nc(=O)n([C@H]2C[C@H](O)[C@@H](CO)O2)cc1Br
- mutagenic call (Species/Cell Type: Arabidopsis species, Assay Type: Gene mutation, Assay Code: ARM+, Evaluation Type: Evaluation A (Pre-1980)): active; positive
- mutagenic call [8]: no conclusion
- mutagenic call [9]: no conclusion
- mutagenic call [10]: no conclusion
- mutagenic call [11]: active; positive

SMILES: C[C@@H]1CCCCN1N=O
- call [5]: active; positive

SMILES: CC(CN1CC(=O)NC(=O)C1)N1CC(=O)NC(=O)C1 (stereo not given)
- mutagenic call [12]: inactive; negative

SMILES: Cc1cc(C)[o+]c(C)c1
- mutagenic call (Species/Cell Type: Allium cepa, Assay Type: Chromosome aberrations, Assay Code: ALC+, Evaluation Type: Evaluation A (Pre-1980)): active; positive

SMILES: O=[N+]([O-])c1cccc(O)c1
- mutagenic call (Species/Cell Type: Allium cepa, Assay Type: Chromosome aberrations, Assay Code: ALC-, Evaluation Type: Evaluation A (Pre-1980)): inactive; negative

SMILES: ClN1CC1
- mutagenic call [13]: active; positive

SMILES: NC1C(O)[C@@H](O)C(CO)O[C@@H]1O (stereo not given in full)
- mutagenic call (Species/Cell Type: Escherichia coli WP2, Assay Type: Tryptophan reverse gene mutation, Assay Code: WP2-, Evaluation Type: Evaluation A (Pre-1980)): inactive; negative

SMILES: COC(F)(F)C(Cl)Cl
- mutagenic call (Species/Cell Type: Mouse, Sex: Male, Assay Type: Sperm morphology, Assay Code: SPI-, Evaluation Type: Evaluation A (Pre-1980)): inactive; negative
- mutagenic call (Species/Cell Type: Nonhuman, Assay Type: Sister-chromatid exchange (SCE) in vitro, Assay Code: SC2T, Evaluation Type: Evaluation B (Post-1980)): no conclusion
- mutagenic call [7]: no conclusion

SMILES: [Cl][W]([Cl])([Cl])([Cl])([Cl])[Cl]
- mutagenic call (Species/Cell Type: Syrian hamster embryo (SA7/SHE) cells, Assay Type: Cell transformation, viral enhanced, Assay Code: CT7-, Evaluation Type: Evaluation A (Pre-1980)): inactive; negative

SMILES: CCNC(=O)Nc1ncc([N+](=O)[O-])s1
- call [5]: active; positive

SMILES: CCNP(=O)(N1CC1)N1CC1
- mutagenic call (Species/Cell Type: Nonhuman bone marrow, Assay Type: Chromosome aberrations, in vivo, Assay Code: CY#+, Evaluation Type: Evaluation A (Pre-1980)): active; positive
- mutagenic call (Species/Cell Type: Nonhuman, Assay Type: Chromosome aberrations in vitro, Assay Code: CY&+, Evaluation Type: Evaluation A (Pre-1980)): active; positive
- mutagenic call [13]: active; positive

SMILES: O=C1c2cccc(O)c2C(=O)c2c(O[C@@H]3O[C@H](CO)[C@@H](O)[C@H](O)[C@H]3O)cccc21
- mutagenic call [1]: active; positive

SMILES: O=[N+]([O-])[O-].O=[N+]([O-])[O-].O=[N+]([O-])[O-].[Rh+3]
- mutagenic call (Species/Cell Type: Bacillus subtilis (H17 vs M45), Assay Type: Rec-assay, spot test, DNA effects (bacterial DNA repair), Assay Code: REW+, Evaluation Type: Evaluation A (Pre-1980)): active; positive

SMILES: Clc1ccc2ccccc2n1
- mutagenic call [7]: no conclusion

SMILES: BrCc1c2ccccc2cc2ccccc12
- mutagenic call [6]: active; positive

SMILES: Nc1ccc(-c2ccc(N)c(Cl)c2)cc1Cl
- mutagenic call (Species/Cell Type: Fischer rat embryo (RLV/1706) cells, Assay Type: Cell transformation, viral enhanced, Assay Code: CTR+, Evaluation Type: Evaluation A (Pre-1980)): active; positive
- mutagenic call (Species/Cell Type: Human diploid fibroblasts, Assay Type: Unscheduled DNA synthesis (UDS) in vitro, DNA effects, Assay Code: UDHT, Evaluation Type: Evaluation A (Pre-1980)): no conclusion
- mutagenic call (Species/Cell Type: Mammalian polychromatic erythrocytes, Assay Type: Micronucleus test, chromosome aberrations, Assay Code: MNT+, Evaluation Type: Evaluation B (Post-1980)): active; positive
- call [5]: active; positive
- mutagenic call [1]: active; positive
- mutagenic call [6]: active; positive
- mutagenic call [11]: active; positive

SMILES: Cc1ncc(CO)c(C(=O)O)c1O
- mutagenic call [9]: no conclusion
- mutagenic call [10]: no conclusion

SMILES: O=C(NC(=O)c1c(F)cccc1F)Nc1ccc(Cl)cc1
- mutagenic call (Species/Cell Type: Mammalian polychromatic erythrocytes, Assay Type: Micronucleus test, chromosome aberrations, Assay Code: MNTT, Evaluation Type: Evaluation A (Pre-1980)): no conclusion
- mutagenic call (Species/Cell Type: Mouse lymphoma (L5178Y) cells, Assay Type: Forward gene mutation at the thymidine kinase (TK) locus, chromosome aberrations, Assay Code: L51T, Evaluation Type: Evaluation A (Pre-1980)): no conclusion
- mutagenic call [12]: inactive; negative
